Experimental data: US20240041042A1, “1-(PYRIDYL)-5-AZINYLPYRAZOLE DERIVATIVES, AND THEIR USE FOR CONTROL OF UNDESIRED PLANT GROWTH” (Bayer Aktiengesellschaft, priority 2020, published 2024)
Like-named read-outs stand apart in the source and are kept apart here.

Columns and labels:
Assay type in all cases: in vivo
[1] = tested on: Pharbitis purpurea (PHBPU); assay: Post-emergence herbicidal action against PHBPU
In short: (§1)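 Greenhouse plants sprayed at the one-leaf stage, 2–3 weeks after sowing, with WP or EC formulations plus 0.5% additive at 600 l/ha water. Activity rated visually after about 3 weeks versus untreated controls (100% = dead, 0% = like control), at 320 g/ha or lower.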

[2] = tested on: Polygonum convolvulus (POLCO); assay: Post-emergence herbicidal action against POLCO
In short: as §1

[3] = tested on: Alopecurus myosuroides (ALOMY); assay: Post-emergence herbicidal action against ALOMY; details: visual rating about 3 weeks after treatment vs untreated controls (100% = plants have died, 0% = like control plants)
In short: as §1

[4] = tested on: Viola tricolor (VIOTR); assay: Post-emergence herbicidal action against VIOTR
In short: as §1

[5] = tested on: Digitaria sanguinalis (DIGSA); assay: Post-emergence herbicidal action against DIGSA; details: visual rating about 3 weeks after treatment
Method: Seeds of monocotyledonous and dicotyledonous weeds and crop plants are placed in sandy loam in plastic or organic planting pots, covered with soil and cultivated in a greenhouse under controlled growth conditions. 2 to 3 weeks after sowing, the test plants are treated at the one-leaf stage. The compounds of the invention, formulated in the form of wettable powders (WP) or as emulsion concentrates (EC), are then sprayed onto the green parts of the plants as aqueous suspension or emulsion with addition of 0.5% additive at a water application rate of 600 l/ha (converted). After the test plants have been kept in the greenhouse under optimum growth conditions for about 3 weeks, the activity of the preparations is rated visually in comparison to untreated controls. For example, 100% activity=the plants have died, 0% activity=like control plants.
Tables B1 to B13 below show the effects of selected compounds of the general formula (I) according to Table 1 on various harmful plants and at an application rate corresponding to 320 g/ha or lower, which were obtained by the experimental procedure mentioned above. The appendices “a”, “b” and “c” give differentiation by dosage used with otherwise the same harmful plants tested.

[6] = tested on: Avena fatua (AVEFA); assay: Post-emergence herbicidal action against AVEFA; details: visual rating about 3 weeks after treatment
In short: as §1

[7] = tested on: Zea mays (ZEAMX); details: for Post-emergence action against ZEAMX in % (crop plant compatibility): 20 g/ha, effect in comparison to untreated controls; for Post-emergence action against ZEAMX in %: crop plant compatibility, effect vs untreated controls
In short: (§2)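 Greenhouse crops in sandy loam sprayed post-emergence at the one-leaf stage, 2–3 weeks after sowing, with WP or EC formulations in water plus 0.5% additive at 600 l/ha. Damage rated visually about 3 weeks later versus untreated controls (0% = like control, 100% = dead); suffixes a–c denote different doses.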

[8] = tested on: Oryza sativa (ORYSA); details: crop plant compatibility
In short: as §2

[9] = tested on: Abutilon theophrasti (ABUTH); assay: Post-emergence herbicidal action against ABUTH; details: visual rating about 3 weeks after treatment vs untreated controls (100% = plants have died, 0% = like control plants)
In short: as §1

[10] = tested on: Echinochloa crus-galli (ECHCG); assay: Post-emergence herbicidal action against ECHCG
In short: as §1

[11] = tested on: Lolium rigidum (LOLRI); assay: Post-emergence herbicidal action against LOLRI
In short: as §1

[12] = tested on: Verconica persica (VERPE); assay: Post-emergence herbicidal action against VERPE
In short: as §1

[13] = tested on: Setaria viridis (SETVI); assay: Post-emergence herbicidal action against SETVI
In short: as §1

[14] = tested on: Matricaria inodora (MATIN); assay: Post-emergence herbicidal action against MATIN
In short: as §1

[15] = tested on: Amaranthus retroflexus (AMARE); assay: Post-emergence herbicidal action against AMARE
In short: as §1

[16] = 20 g/ha, effect vs untreated controls
[17] = 80 g/ha, effect in comparison to untreated controls
[18] = 80 g/ha, visual rating about 3 weeks after treatment vs untreated controls (100% = plants have died, 0% = like control plants)
[19] = 320 g/ha, visual rating about 3 weeks after treatment

Compound	Post-emergence action against PHBPU in % ([1]; dosage 320 g/ha)	Post-emergence action against POLCO in % ([2]; dosage 80 g/ha)	Post-emergence action against POLCO in % ([2]; dosage 320 g/ha)	Post-emergence action against ALOMY in % ([3]; 320 g/ha)	Post-emergence action against VIOTR in % ([4]; 80 g/ha)	Post-emergence action against VIOTR in % ([4]; 320 g/ha)	Post-emergence action against DIGSA in % ([5]; 320 g/ha)	Post-emergence action against AVEFA in % ([6]; 320 g/ha)	Post-emergence action against ZEAMX in % (crop plant compatibility) [7]	Post-emergence action against ZEAMX in % ([7]; 80 g/ha)	Post-emergence action against ORYSA in % [8, 16]	Post-emergence action against ORYSA in % [8, 17]	Post-emergence action against ECHCG in % ([10]; dosage 320 g/ha)	Post-emergence action against LOLRI in % ([11]; dosage 320 g/ha)	Post-emergence action against VERPE in % ([12]; 320 g/ha, VERPE)	Post-emergence action against VERPE in % ([12]; dosage 80 g/ha)	Post-emergence action against SETVI in % ([13]; dosage 320 g/ha)	Post-emergence action against DIGSA in % ([5]; 80 g/ha)	Post-emergence action against ECHCG in % ([10]; dosage 80 g/ha)	Post-emergence action against AVEFA in % ([6]; 80 g/ha)	other results
CCOC(=O)[C@@H](C)Oc1nn(-c2ncccc2F)c(-c2ccnc(F)c2)c1Br [Example I-133]	80%	80%	80%	90%	80%	90%	80%	80%	0%	0%	0%	10%	90%	90%	80%	80%	80%				Post-emergence action against ZEAMX in % ([7]; 320 g/ha): 20%; Post-emergence action against ABUTH in % ([9]; 320 g/ha): 80%
CCOC(=O)COc1nn(-c2ncccc2F)c(-c2cncc(F)c2)c1C(F)(F)F [Example I-141]	90%	80%	80%	90%	80%	80%	90%	80%			10%		80%	90%	90%	90%	90%	90%	80%		Post-emergence action against PHBPU in % ([1]; dosage 80 g/ha): 80%; Post-emergence action against MATIN in % ([14]; dosage 80 g/ha): 80%; Post-emergence action against MATIN in % ([14]; dosage 320 g/ha): 90%; Post-emergence action against AMARE in % [15, 18]: 80%; Post-emergence action against AMARE in % [15, 19]: 90%; Post-emergence action against SETVI in % ([13]; dosage 80 g/ha): 90%
C[C@@H](Oc1nn(-c2ncccc2F)c(-c2cncc(F)c2)c1C1CC1)C(=O)O [Example I-166]	90%	80%	80%	90%	80%	80%	90%	90%	10%		0%	20%	80%	90%	80%	80%	90%	90%	80%	90%	Post-emergence action against PHBPU in % ([1]; dosage 80 g/ha): 80%; Post-emergence action against ALOMY in % ([3]; 80 g/ha): 90%; Post-emergence action against MATIN in % ([14]; dosage 80 g/ha): 80%; Post-emergence action against MATIN in % ([14]; dosage 320 g/ha): 90%; Post-emergence action against LOLRI in % ([11]; dosage 80 g/ha): 80%; Post-emergence action against SETVI in % ([13]; dosage 80 g/ha): 90%
C[C@@H](Oc1nn(-c2ccccn2)c(-c2ccc(F)nc2)c1Br)C(=O)O [Example I-260]	80%	80%	80%	90%			90%	80%			10%	10%	90%	80%	80%		90%	90%		80%	Post-emergence action against ABUTH in % ([9]; 320 g/ha): 80%
O=C(COc1nn(-c2ncccc2F)c(-c2ccc(F)nc2)c1C1CC1)OCC1COC1 [Example I-264]	80%			90%	90%	90%	80%	90%	10%	20%	0%	10%	90%	90%	90%	80%	90%	80%	90%	80%	Post-emergence action against PHBPU in % ([1]; dosage 80 g/ha): 80%; Post-emergence action against MATIN in % ([14]; dosage 320 g/ha): 80%; Post-emergence action against LOLRI in % ([11]; dosage 80 g/ha): 90%; Post-emergence action against SETVI in % ([13]; dosage 80 g/ha): 90%
COC(=O)C(C)COC(=O)[C@@H](C)Oc1nn(-c2ccccn2)c(-c2ccc(F)nc2)c1Cl (stereo partly drawn) [Example I-267]	90%	80%	80%	90%	90%	90%	90%	90%	0%	20%			90%	100%	90%	90%	90%			90%	Post-emergence action against ABUTH in % ([9]; 80 g/ha): 80%; Post-emergence action against ABUTH in % ([9]; 320 g/ha): 90%; Post-emergence action against LOLRI in % ([11]; dosage 80 g/ha): 90%; Post-emergence action against AMARE in % [15, 18]: 80%; Post-emergence action against AMARE in % [15, 19]: 80%; Post-emergence action against SETVI in % ([13]; dosage 80 g/ha): 90%
COC(=O)C(C)OC(=O)C(C)Oc1nn(-c2ccccn2)c(-c2ccc(F)nc2)c1Cl (stereo not drawn) [Example I-299]	90%		80%	90%	80%	90%	90%	80%	0%	10%	10%	20%	90%	80%	80%	80%	90%	80%	80%	80%	Post-emergence action against ALOMY in % ([3]; 80 g/ha): 80%; Post-emergence action against LOLRI in % ([11]; dosage 80 g/ha): 80%; Post-emergence action against AMARE in % [15, 19]: 80%
CC(C)OC(=O)COc1nn(-c2ncccc2F)c(-c2ccc(F)nc2)c1C1CC1 [Example I-328]	90%	90%	90%	90%	80%	90%	90%	90%	0%	0%	0%		90%	90%	90%	90%	90%	90%	90%	90%	Post-emergence action against PHBPU in % ([1]; dosage 80 g/ha): 90%; Post-emergence action against ALOMY in % ([3]; 80 g/ha): 90%; Post-emergence action against ABUTH in % ([9]; 80 g/ha): 80%; Post-emergence action against ABUTH in % ([9]; 320 g/ha): 80%; Post-emergence action against LOLRI in % ([11]; dosage 80 g/ha): 90%; Post-emergence action against AMARE in % [15, 18]: 90%; Post-emergence action against AMARE in % [15, 19]: 90%; Post-emergence action against SETVI in % ([13]; dosage 80 g/ha): 90%
COC(=O)C(C)COC(=O)COc1nn(-c2ncccc2F)c(-c2ccc(F)nc2)c1C1CC1 (stereo not drawn) [Example I-382]	80%		80%	90%	80%	90%	90%	90%	0%	20%	0%	10%	90%	90%	80%	80%	90%	80%	80%	90%	Post-emergence action against PHBPU in % ([1]; dosage 80 g/ha): 80%; Post-emergence action against SETVI in % ([13]; dosage 80 g/ha): 90%
